The source of these data is publication PMC11874779 (Drug Design, Development and Therapy, 2025).

In this test the test system is Baf3-EGFR^19del/T790M/C797S. The test can be described thus: Xenograft tumor model. Type of test: in vivo, BALB/c nude mice. The settings on record: 100 mg/kg ig daily, 9 days, from tumor weight.

As to `C=CC(=O)Nc1cc(Nc2nccc(-c3cn(C)c4ccccc34)n2)c(OC)cc1N(C)CCN(C)C` [Osimertinib], the “Tumor Growth Inhibition value (TGI)” value is recorded as 13.5%.
